Patent US11060066B2, “Human pluripotent stem cell-based models for predictive developmental neural toxicity” (priority 2014, dated 2021)

Test system: 3D neural constructs
Format: cell-based, human
Description: For toxicity screening experiments, cells were seeded as described above (Examples 1 and 2), but with 65,000 cells/well for ECs+MSCs (also 5:1 ratio) and 15,000 cells/well for microglia/macrophage precursors. Neural constructs were treated with non-toxic or toxic compounds starting at day 14, with media exchanged every 2 days. The following screening protocol was developed by the Thomson lab. Toxic chemicals (FIG. 10E) were chosen based on previous literature support for neurotoxicity (Adams et al., Neurotoxicol Teratol 15(3):193-202 (1993); Cooper et al., Science 280(5369):1603-1607 (1998); Crofton et al., ALTEX-Altern Anim Exp 28(1):9-15 (2011); Eskes et al. (2003); Grandjean et al., Lancet Neurol. 13:330 (2014); Lidsky (2003); Radio et al., Neurotoxicol Teratol 32(1):25-35 (2010); Zurich (2002)). […]
After reverse transcription, RNA is removed by RNaseA and RNaseH treatment. […] The indexed cDNA libraries were pooled and sequenced on an Illumina HiSeq2500 with a single 51 bp read and a 10 bp index read.
RSEM expected read counts for each gene were determined by median normalization (utilizing the median normalization function within EB Seq—version 1.5.3) (Leng et al., Bioinformatics 29(8):1035-1043 (2013)). […]

Compound: CCCCCCCC/C=C\CCCCCCCC(=O)O [oleic acid]
- SVM prediction as toxic or non-toxic (control): neurotoxin
- SVM probability of being toxic (ranking of blinded compounds) (human): higher probability of being toxic than L-741,626 and Ouabain
